Measurements as given in US20240409558A1, “IRREVERSIBLE INHIBITORS OF KRAS” (BIOMEA FUSION, INC., priority 2021, published 2024).

These compounds were tested on human KRAS G12C mutated cell line MIA PaCa-2 (assay: Inhibition of proliferation of MIA PaCa-2 cells (CellTiter-Glo, 7 day)). Settings: 168 h, Table 3, 7 day, mean, read-out: MIA PaCa-2 IC50 (μM) 7 day Mean.
Format: cell-based
Description: The present example evaluates the ability of compounds provided herein to inhibit proliferation of KRAS mutant cells.
The proliferation inhibitory effect was investigated in the human KRAS G12C mutated cell line MIA PaCa-2 (Yunis et al., 1977, Int. J. Cancer 19(1):128-135; ATCC catalog no. CRL-1420). Cells were maintained in RPMI-1640 medium (ThermoFisher catalog no. 61870036) supplemented with 10% of Heat Inactivated FBS (ThermoFisher catalog no. A31605) and 1% Pen-Strep (ThermoFisher catalog no. 10378016) and cultured at 37° C. in a humidified incubator with 5% CO2. Cell lines were grown by adhering to culture flasks, and the cells were maintained in a range 70%-80% confluency.
ATP is present in all metabolically active cells and is considered as a marker for cell viability and proliferation. Metabolic cell activity was determined using the CellTiter-Glo kit (Promega catalog no. G7572), an ATP monitoring system based on the production of luminescence by the reaction of ATP with added UltraGlo® recombinant luciferase (Kawano et al., 2016, PLOS One, 8; 11(7):e0158888), according to the supplier's experimental recommendations. The assay was based on a 96 well plate format.
Test compounds were dissolved at 10 mM in DMSO (Sigma catalog no. D8418; purity >99.9%) and stored at −20° C. Eight concentrations of test compound were assessed in duplicate in an individual test occasion in parallel in the selected cell lines. MRTX-849 and AMG-510 were used as reference compounds and tested in duplicate at eight concentrations. 100% of proliferation is represented by the untreated cells (0.2% DMSO).
(§1) On the day of the experiment (TO), cells were detached with TrypLE (ThermoFisher catalog no. 12604054) and quantified using the Vi-CELL XR Cell Viability (Beckman Coulter) analyzer and diluted with fresh medium to obtain the cell density of about 1000 cells per 200 μL medium. 200 μL of cell suspension were added into wells in the 96 well plate.
After 2 hours from seeding cells, compounds were added using a D300e compound dispenser (Tecan Trading AG) at desired concentrations with shaking between each compound dispensed. Cell plates containing 200 μL/well were incubated at 37° C. in a humidified incubator with 5% CO2.
On day T3, 150 μL of growth media per well were removed from plates containing the samples, 150 uL fresh growth media were added to each well, and fresh compounds were added using a D300e compound dispenser (Tecan Trading AG) at desired concentrations with shaking between each compound dispensed. Cell plates containing 200 uL/well were incubated at 37° C. in a humidified incubator with 5% CO2. On day T7 plates containing the samples were equilibrated at room temperature for approximately 15 min, and then 40 μL/well of the Promega CellTiterGlo® reagent was added. Contents were mixed for 30 minutes on an orbital shaker to induce cell lysis. Luminescence was read using a Synergy Neo 2 (Agilent Technologies.
Data was expressed as % of inhibition compared to the 0.2% DMSO negative control, and is calculated as follows: % inhibition=100−[(RLU sample)×100/(RLU controls*)], where * indicates the average for 0.2% DMSO. […]
as §1, with “12604054),” for “12604054) and”, “resuspended in” for “diluted with”, “at a” for “to obtain the”, “to each well of a” for “into wells in the”
Two hours after seeding cells, compounds were added at desired concentrations using a D300e compound dispenser (Tecan Trading AG) with shaking after each compound addition. Assay plates were incubated at 37° C. in a humidified incubator with 5% CO2.
On day 3 (T3) 150 μL of medium from assay plates were removed. 150 μL fresh medium and compounds were added at desired concentrations using a D300e compound dispenser (Tecan Trading AG) with shaking after each compound addition. […]

Row | SMILES | IC50
1 | C=CC(=O)N1C2CCC1CN(c1nc(OC[C@@]34CCCN3C[C@H](F)C4)nc3cc(-c4cccc5cccc(Cl)c45)ccc13)C2 [Compound 324, 1-[3-[7-(8-chloro-1-naphthyl)-2-[[(2R,8S)-2-fluoro-1,2,3,5,6,7-hexahydropyrrolizin-8-yl]methoxy]quinazolin-4-y1]-3,8-diazabicyclo[3.2.1]octan-8-yl]prop-2-en-1-one] | > 1 µM
2 | C=CC(=O)N1CCN(c2nc(OC[C@@]34CCCN3C[C@H](F)C4)nc3cc(-c4c(O)cccc4C4CC4)c(F)cc23)[C@H](C)C1 [Compound 325, 1-[(3R)-4-[7-(2-cyclopropyl-6-hydroxy-phenyl)-6-fluoro-2-[[(2R,8S)-2-fluoro-1,2,3,5,6,7-hexahydropyrrolizin-8-yl]methoxy]quinazolin-4-yl]-3-methyl-piperazin-1-yl]prop-2-en-1-one] | 0.0112 µM
3 | C=CC(=O)N1C2CCC1CN(c1cc(OC[C@@]34CCCN3C[C@H](F)C4)nc3c(F)c(-c4cc(O)cc(Cl)c4C4CC4)ccc13)C2 [Compound 326] | > 1 µM
4 | C=CC(=O)N1C2CCC1CN(c1nc(OC[C@@]34CCCN3C[C@H](F)C4)nc3c(F)c(N4CC(O)Cc5cccc(Cl)c54)ncc13)C2 (stereo partly drawn) [Compound 328, 1-[3-[7-(8-chloro-3-hydroxy-3,4-dihydro-2H-quinolin-1-yl)-8-fluoro-2-[[(2R,8S)-2-fluoro-1,2,3,5,6,7-hexahydropyrrolizin-8-yl]methoxy]pyrido[4,3-d]pyrimidin-4-yl]-3,8-diazabicyclo[3.2.1]octan-8-yl]prop-2-en-1-one] | > 1 µM
5 | C=CC(=O)N1CCC(c2nc(OC[C@@]34CCCN3C[C@H](F)C4)nc3c(F)c(-c4cc(O)cc(Cl)c4C4CC4)ncc23)CC1 [Compound 329] | 0.0144 µM
6 | C=CC(=O)N1CCC(c2nc(OC[C@@]34CCCN3C[C@H](F)C4)nc3c(F)c(-c4cc(O)cc5ccc(F)c(F)c45)ncc23)CC1 [Compound 330] | 0.00664 µM
7 | C=CC(=O)N1C2CCC1CC(c1nc(OC[C@@]34CCCN3C[C@H](F)C4)nc3c(F)c(-c4cc(O)cc5ccc(F)c(F)c45)ncc13)C2 (stereo partly drawn) [Compound 333] | 1.75 µM

Now from value to compound:

Row | IC50 | SMILES
8 | 0.0373 µM | C=CC(=O)N1CCC(c2nc(OC[C@@]34CCCN3C[C@H](F)C4)nc3c(F)c(-c4cc(O)cc5ccc(F)c(F)c45)ncc23)C[C@@H]1C (stereo partly drawn) [Compound 331, 1-[(2S)-4-[7-(7,8-difluoro-3-hydroxy-1-naphthyl)-8-fluoro-2-[[(2R,8S)-2-fluoro-1,2,3,5,6,7-hexahydropyrrolizin-8-yl]methoxy]pyrido[4,3-d]pyrimidin-4-y1]-2-methyl-1-piperidyl]prop-2-en-1-one]
9 | > 1 µM | C=CC(=O)N1CCC(CC)(c2nc(OC[C@@]34CCCN3C[C@H](F)C4)nc3c(F)c(-c4cc(O)cc(Cl)c4C4CC4)ncc23)CC1 [Compound 332, 1-[4-[7-(3-chloro-2-cyclopropyl-5-hydroxy-phenyl)-8-fluoro-2-[[(2R,8S)-2-fluoro-1,2,3,5,6,7-hexahydropyrrolizin-8-yl]methoxy]pyrido[4,3-d]pyrimidin-4-yl]-4-ethyl-1-piperidyl]prop-2-en-1-one]
10 | 0.858 µM | C=CC(=O)N1CCC(C)(c2nc(OC[C@@]34CCCN3C[C@H](F)C4)nc3c(F)c(-c4cc(O)cc(Cl)c4C4CC4)ncc23)CC1 [Compound 335]

Same assay, conditions: 168 h, Table 4, 7 day, mean, read-out: MIA PaCa-2 IC50 (μM) 7 day Mean

Row | SMILES | IC50
11 | Oc1cc2cccc(-c3ncc4c(N5CC6CCC(C5)N6)nc(OC[C@@]56CCCN5C[C@H](F)C6)nc4c3F)c2c(F)c1F [Compound 401, 5-[4-(3,8-diazabicyclo[3.2.1]octan-3-yl)-8-fluoro-2-[[(2R,8S)-2-fluoro-1,2,3,5,6,7-hexahydropyrrolizin-8-yl]methoxy]pyrido[4,3-d]pyrimidin-7-y1]-3,4-difluoro-naphthalen-2-ol] | > 1 µM
12 | Oc1cc(Cl)c(C2CC2)c(-c2cc3nc(OC[C@@]45CCCN4C[C@H](F)C5)nc(N4CC5CCC(C4)N5)c3cc2F)c1 [Compound 404, 3-chloro-4-cyclopropyl-5-[4-(3,8-diazabicyclo[3.2.1]octan-3-yl)-6-fluoro-2-[[(2R,8S)-2-fluoro-1,2,3,5,6,7-hexahydropyrrolizin-8-yl]methoxy]quinazolin-7-yl]phenol] | > 1 µM

Other lines, results leading:

Row | IC50 | SMILES
13 | 7.83 µM | Oc1cc(-c2ncc3c(C45CCNCC4C5)nc(OC[C@@]45CCCN4C[C@H](F)C5)nc3c2F)c2ccccc2c1 (stereo partly drawn) [Compound 403, 4-[4-(3-azabicyclo[4.1.0]heptan-6-yl)-8-fluoro-2-[[(2R,8S)-2-fluoro-1,2,3,5,6,7-hexahydropyrrolizin-8-yl]methoxy]pyrido[4,3-d]pyrimidin-7-yl]naphthalen-2-ol]
14 | > 1 µM | Oc1cc(Cl)c(C2CC2)c(-c2cc3nc(OC[C@@]45CCCN4C[C@H](F)C5)nc(N4CCNC5(CC5)C4)c3cc2F)c1 [Compound 405, 3-chloro-4-cyclopropyl-5-[4-(4,7-diazaspiro[2.5]octan-7-y1)-6-fluoro-2-[[(2R,8S)-2-fluoro-1,2,3,5,6,7-hexahydropyrrolizin-8-yl]methoxy]quinazolin-7-yl]phenol]
15 | > 1 µM | Oc1cc(Cl)c(C2CC2)c(-c2cnc3c(N4C[C@H]5C[C@@H]4CN5)nc(OC[C@@]45CCCN4C[C@H](F)C5)nc3c2)c1 [Compound 406, 3-chloro-4-cyclopropyl-5-[4-[(1R,4R)-2,5-diazabicyclo[2.2.1]heptan-2-yl]-2-[[(2R,8S)-2-fluoro-1,2,3,5,6,7-hexahydropyrrolizin-8-yl]methoxy]pyrido[3,2-d]pyrimidin-7-yl]phenol]
16 | > 1 µM | N#C[C@H]1CNCCN1c1nc(OC[C@@]23CCCN2C[C@H](F)C3)nc2cc(F)c(-c3cccc4cccc(Cl)c34)cc12 [Compound 407, (2R)-1-[6-(8-chloro-1-naphthyl)-7-fluoro-2-[[(2R,8S)-2-fluoro-1,2,3,5,6,7-hexahydropyrrolizin-8-yl]methoxy]quinazolin-4-yl]piperazine-2-carbonitrile]
17 | > 1 µM | Fc1cc2c(N3CCNCC34CC4)nc(OC[C@@]34CCCN3C[C@H](F)C4)nc2cc1-c1cccc2cccc(Cl)c12 [Compound 408, 7-(8-chloro-1-naphthyl)-4-(4,7-diazaspiro[2.5]octan-4-yl)-6-fluoro-2-[[(2R,8S)-2-fluoro-1,2,3,5,6,7-hexahydropyrrolizin-8-yl]methoxy]quinazoline]
18 | > 1 µM | Oc1cc(Cl)c(C2CC2)c(-c2ccc3c(N4CCNC5(CC5)C4)nc(OC[C@@]45CCCN4C[C@H](F)C5)nc3c2F)c1 [Compound 409, 3-chloro-4-cyclopropyl-5-[4-(4,7-diazaspiro[2.5]octan-7-yl)-8-fluoro-2-[[(2R,8S)-2-fluoro-1,2,3,5,6,7-hexahydropyrrolizin-8-yl]methoxy]quinazolin-7-yl]phenol]
19 | > 1 µM | Oc1cc(Cl)c(C2CC2)c(-c2cnc3c(N4CCNC5(CC5)C4)nc(OC[C@@]45CCCN4C[C@H](F)C5)nc3c2)c1 [Compound 410]
20 | > 1 µM | Fc1cc2c(N3C[C@H]4C[C@@H]3CN4)nc(OC[C@@]34CCCN3C[C@H](F)C4)nc2cc1-c1cccc2cccc(Cl)c12 [Compound 411, 7-(8-chloro-1-naphthyl)-4-[(1R,4R)-2,5-diazabicyclo[2.2.1]heptan-2-y1]-6-fluoro-2-[[(2R,8S)-2-fluoro-1,2,3,5,6,7-hexahydropyrrolizin-8-yl]methoxy]quinazoline]
21 | > 1 µM | Oc1cc(Cl)c(C2CC2)c(-c2cc3nc(OC[C@@]45CCCN4C[C@H](F)C5)nc(N4CCNCC45CC5)c3cc2F)c1 [Compound 412, 3-chloro-4-cyclopropyl-5-[4-(4,7-diazaspiro[2.5]octan-4-yl)-6-fluoro-2-[[(2R,8S)-2-fluoro-1,2,3,5,6,7-hexahydropyrrolizin-8-yl]methoxy]quinazolin-7-yl]phenol]
